Where two headings read alike, the source gives them in different places. Marks after values point to notes of the source that are not given here.
Experiments:
[1] = Single dose, double-blinded, cross-over clinical trial of 801 mg LYT-100 vs pirfenidone, safety and pharmacokinetics; settings: for Cmax / tmax: 5-hydroxymethyl metabolite after 801 mg of parent (LYT-110 after LYT-100, LYT-111 after pirfenidone); for Cmax / AUC0-t / AUC(inf) / Kel / t½: Mean (CV%); for tmax: Median (Range); for AUC0-t / AUC(inf) / Kel / t½: 5-hydroxymethyl metabolite after 801 mg of parent; for AUC(inf) / Kel / t½: n=23 LYT-110, n=19 LYT-111; for Metabolite/Parent Ratio, AUC0-∞, Mean / Metabolite/Parent Ratio, Cmax, Mean: MW-corrected; for metabolite as percent of parent in terms of AUC: single 801 mg dose
Text: (§1) Following screening, eligible healthy volunteer subjects were admitted to a single clinical study site and were randomized to 1 of 2 treatment sequences. […] In each period, a standardized breakfast was provided to subjects prior to administration of study drug (to compare the PK profiles in the clinically relevant fed state) and plasma samples were collected over a 48-hour period after dosing for evaluation of PK. Dosing between the 2 periods was separated by a minimum of 7 days. Subjects completed the study upon completion of the 48-hour post-dose assessments following dosing period 2.
(§2) All capsules were identical in size, shape, and external color.

[2] = cited from earlier work
[3] = human, in vivo, 48 h
Text: as §1, §2

[4] = cited from earlier work; remark: listed apart in the source
[5] = Repeat dose oral toxicity and toxicokinetics study in Sprague Dawley rats
Experimental: The protocol was amended to add additional TK male animals in Group 6 for Day 1 collection of TK samples at 875 mg/kg.
Blood samples were collected from 3 subsets of 3 animals/sex on Day 1 and Day 28 at predose, 0.25, 0.5, 1, 2, 4, 8 and 24 hours (hr) post-dose for groups 2 to 6 and from one subset of 3 animals/sex at 0.25 hr post-dose for the vehicle group (group 1). […] Non-compartmental analysis (NCA) of plasma concentration data was conducted using Phoenix® WinNonlin®, version 8.0.

[6] = Phase 1 Multiple Ascending Dose (MAD) study Part 1, plasma pharmacokinetics
Experimental: All Part 1 cohorts will be dosed every 12 hours with food for 5 days.
During the treatment period (Day 1 through Day 5), participants will be administered their assigned study medication BID, every 12 h ± 0.25 h (with approximately 240 mL of non-carbonated water), 30 minutes after the start of consumption of their standardised breakfast or dinner (12 h apart). A standardised lunch will be served ≥ 4 h post breakfast and ≥ 4 h prior to dinner. An evening snack will be served ≥ 3 h following evening study medication administration. No additional fluids will be allowed during the 1 h pre- and post-doses. On Day 6, subjects will replicate mealtimes as scheduled on Day 1-5.
In Part 1, blood samples (4 mL each) for PK will be collected for Cohorts 1, 2, 3, 4, and 6 at specified times (hours) at each as follows: • Day 1 and Day 5: 0 (pre-dose), 0.5, 1, 1.5, 2, 2.5, 3, 3.5, 4, 6, 8, 12 (pre-dose), 13, 14, 15, 16, 18 h • Day 2, Day 3 and Day 4: 0 (pre-morning-dose) and 12 h (pre-evening-dose) • Day 6: 12, 18, 24 and 36 h post-last dose • Day 7: 48 h (post-last dose)
Pharmacokinetics for Day 1 to 3 in Part 2 (fed state) will be compared to PK for Day 1 to Day 3 in Part 2 (fasted state). Plasma PK parameters (non-compartmental or compartmental analysis as appropriate) will include, but are not limited to: • Following single dose: Tmax, tlag, Cmax, AUC0-4, AUC0-last, t½, AUC0-inf, lambda z, %AUCext, CL/F, Vz/F, Cmax/D, AUC0-last/D, AUC0-inf/D and MRT (D is dose) • After repeated doses: Ctrough, Ctrough/D • Following repeated doses on last day: Tmax, Cmax, Cavg, tlag, t½, AUC0-4, AUC0-last, AUC0-inf, lambda z, %AUCext, CLss/F, Vzss/F, MRT, PTF, Rac(AUC), Rac(Cmax), Cmax/D, AUClast/D, AUC0-inf/D and Rac (accumulation ratio)
All cohorts (n=6 each) were dosed every 12 hours with food for 5 days at either 100, 250, 500, or 750 mg BID. […] Following processing, the samples were analyzed by HPLC on a Phenomenex Luna PFP(2), 3 µm, 50 x 2.0 mm column, and the eluates were monitored by an API4000 MS/MS detector in positive MRM mode. The data were acquired and processed by the data acquisition system Analyst® (Sciex).

[7] = after 801 mg pirfenidone (parent LYT-101)
[8] = Lancaster et al. 2017, frequencies as high as
[9] = patients aged at least 80 years
[10] = single-center retrospective study of 351 patients
[11] = after 801 mg LYT-100 (parent LYT-100)
[12] = Day 1, Female, deuterated analyte / non-deuterated counterpart
[13] = across dose groups 100, 250, 500, 750 mg BID (FIG. 20)
[14] = across dose groups 100, 250, 500, 750, 1000 mg BID (FIG. 26)

For `O=c1ccc(CO)cn1-c1ccccc1` [LYT-111, 5-hydroxymethyl-pirfenidone], the Cmax [1] was 17.1 (36%) ng/mL, the tmax [1] was 2.50 (1.50 - 4.00) hr and the AUC0-t [1] was 75.8 (42%) hr*ng/mL. For the same molecule, the “AUC(inf)” value [1] was 89.7 (41%) ^b hr*ng/mL, the Kel [1] was 0.367 (29%) ^b ⅟hr and the t½ [1] was 2.04 (29%) ^b hr. For the same molecule, the “Metabolite/Parent Ratio, AUC0-∞, Maximum” value [1, 7] was 0.4%, the “Metabolite/Parent Ratio, AUC0-∞, Median” value [1, 7] was 0.2% and the “Metabolite/Parent Ratio, AUC0-∞, Minimum” value [1, 7] was 0.1%. For the same molecule, the “Metabolite/Parent Ratio, Cmax, Maximum” value [1, 7] was 0.4%, the “Metabolite/Parent Ratio, Cmax, Median” value [1, 7] was 0.2% and the “Metabolite/Parent Ratio, Cmax, Minimum” value [1, 7] was 0.1%. For the same molecule, the “Metabolite/Parent Ratio, AUC0-∞, Mean” value [1, 7] was 0.2%, the “Metabolite/Parent Ratio, Cmax, Mean” value [1, 7] was 0.2% and the “metabolite as percent of parent in terms of AUC” value [1] was “less than 2%”.
In the case of `Cc1ccc(=O)n(-c2ccccc2)c1` [pirfenidone, 5-methyl-1-phenyl-1H-pyridin-2-one], the “AUC, % Change Fed vs Fasted” value ([2]; Pirfenidone @ 800 mg) is given as -15%, the “Cmax, % Change Fed vs Fasted” value ([2]; Pirfenidone @ 800 mg) is given as -49% and the “Tmax, % Change Fed vs Fasted” value ([2]; Pirfenidone @ 800 mg) is given as “+500%”. For the same molecule, the “increase in Tmax, fed vs fasted” value ([2]; pirfenidone) was 500%, the “tolerability of single doses” value [3] was “well tolerated” and the “diarrhea, TEAE frequency” value [4, 8] was ≤ 27.6 per 100PEY. For the same molecule, the “fatigue, TEAE frequency” value [4, 8] was ≤ 52.4 per 100PEY, the “nausea, TEAE frequency” value [4, 8] was ≤ 62.1 per 100 PEY and the “adverse drug reactions leading to permanent treatment discontinuation” value ([4]; PASSPORT study, Cottin et al. 2018) was 28.7%. The “patients who had an adverse event” value ([4]; compassionate use program, Raghu & Thickett 2013) was 44%, the half-life ([4]; in humans) was “about 2.5 hours” and the “ADR leading to discontinuation” value ([4]; patients aged <65 years) was 7.5%. The “ADR leading to discontinuation” value [4, 9] was 20.9%, the “ADR leading to dose modification/interruption” value [4, 9] was 32.7% and the “ADR leading to dose modification/interruption” value ([4]; patients aged less than 65 years) was 18.0%. For the same molecule, the “elevations of AST and ALT levels to >3× ULN” value ([4]; phase III trials) was 3.2%, the loss of appetite [4, 10] was 17% and the nausea/vomiting [4, 10] was 15%. The “reported AEs that were GI-related” value [4, 10] was 75%.
With `[2H]C([2H])([2H])c1ccc(=O)n(-c2ccc(O)cc2)c1` [LYT-103, d3-4′-hydroxy-pirfenidone] the “Metabolite/Parent Ratio, AUC0-∞, Maximum” value [1, 11] was 0.2%, the “Metabolite/Parent Ratio, AUC0-∞, Median” value [1, 11] was 0.1% and the “Metabolite/Parent Ratio, AUC0-∞, Minimum” value [1, 11] was 0.1%. The “Metabolite/Parent Ratio, Cmax, Maximum” value [1, 11] was 0.2%, the “Metabolite/Parent Ratio, Cmax, Median” value [1, 11] was 0.1% and the “Metabolite/Parent Ratio, Cmax, Minimum” value [1, 11] was 0.1%. The “Metabolite/Parent Ratio, AUC0-∞, Mean” value [1, 11] was 0.1%, the “Metabolite/Parent Ratio, Cmax, Mean” value [1, 11] was 0.1% and the “quantifiability of metabolite in human plasma” value ([1]; after LYT-100 801 mg) was “not quantifiable”. For the same molecule, the “similarity in exposure (AUC ratio), Group 4 (LYT-100 at 750 mg/kg) / Group 5 (SD-559 at 750 mg/kg)” value [5, 12] was 21.77, the “similarity in exposure (AUC ratio), Group 4 (LYT-100 at 750 mg/kg) / Group 5 (SD-559 at 750 mg/kg)” value ([5]; Day 1, Male) was 34.51 and the “similarity in exposure (AUC ratio), Group 4 (LYT-100 at 750 mg/kg) / Group 5 (SD-559 at 750 mg/kg)” value ([5]; Day 28, Female) was 38.04. For the same molecule, the “average ratio to the parent (M/P) by AUC” value ([6]; Cohort 4, 750 mg BID LYT-100) was 0.0017 (0.0012-0.0022), the “average ratio to the parent (M/P) by AUC” value ([6]; Cohort 6, 1000 mg BID LYT-100) was 0.0037 (0.0030-0.0058) and the “AUC accumulation ratio (AUC96-108/AUC0-12)” value [6, 13] was ~ 1. The “AUC accumulation ratio (AUC96-108/AUC0-12)” value [6, 14] was ~ 1.
With `[2H]C([2H])(O)c1ccc(=O)n(-c2ccccc2)c1` [LYT-110, d2-5-hydroxymethyl-pirfenidone] the Cmax [1] was 20.6 (30%) ng/mL, the tmax [1] was 2.50 (1.00 - 4.00) hr and the AUC0-t [1] was 111 (32%) hr*ng/mL. For the same molecule, the “AUC(inf)” value [1] was 124 (32%) ^a hr*ng/mL, the Kel [1] was 0.294 (44%) ^a ⅟hr and the t½ [1] was 2.76 (38%) ^a hr. For the same molecule, the “Metabolite/Parent Ratio, AUC0-∞, Maximum” value [1, 11] was 0.4%, the “Metabolite/Parent Ratio, AUC0-∞, Median” value [1, 11] was 0.2% and the “Metabolite/Parent Ratio, AUC0-∞, Minimum” value [1, 11] was 0.1%. For the same molecule, the “Metabolite/Parent Ratio, Cmax, Maximum” value [1, 11] was 0.4%, the “Metabolite/Parent Ratio, Cmax, Median” value [1, 11] was 0.2% and the “Metabolite/Parent Ratio, Cmax, Minimum” value [1, 11] was 0.1%. The “Metabolite/Parent Ratio, AUC0-∞, Mean” value [1, 11] was 0.2%, the “Metabolite/Parent Ratio, Cmax, Mean” value [1, 11] was 0.2% and the “Cmax in rat relative to human” value ([5]; 750 mg/kg LYT-100, Day 1, male rat vs human 801 mg) was ~1825 fold. The “exposure (AUC) in rat relative to human” value ([5]; 750 mg/kg LYT-100, Day 1, male rats vs human 801 mg) was “about 1250 fold”, the “similarity in exposure (AUC ratio), Group 4 (LYT-100 at 750 mg/kg) / Group 5 (SD-559 at 750 mg/kg)” value [5, 12] was 2.50 and the “similarity in exposure (AUC ratio), Group 4 (LYT-100 at 750 mg/kg) / Group 5 (SD-559 at 750 mg/kg)” value ([5]; Day 1, Male) was 2.22. For the same molecule, the “similarity in exposure (AUC ratio), Group 4 (LYT-100 at 750 mg/kg) / Group 5 (SD-559 at 750 mg/kg)” value ([5]; Day 28, Female) was 2.59, the “similarity in exposure (AUC ratio), Group 4 (LYT-100 at 750 mg/kg) / Group 5 (SD-559 at 750 mg/kg)” value ([5]; Day 28, Male) was 2.54 and the “exposure and Cmax vs. non-deuterated corresponding metabolite (SD-788)” value ([5]; SD-560 750 mg/kg vs SD-559 750 mg/kg, all days, both genders) was “almost twice”. For the same molecule, the “exposure in rats relative to humans” value ([5]; male rat after 28 days of daily dosing vs human) was ~1600 fold, the “average ratio to the parent (M/P) by AUC” value ([6]; Cohort 4, 750 mg BID LYT-100) was 0.0025 (0.0020-0.0029) and the “average ratio to the parent (M/P) by AUC” value ([6]; Cohort 6, 1000 mg BID LYT-100) was 0.0028 (0.0018-0.0038). For the same molecule, the “AUC accumulation ratio (AUC96-108/AUC0-12)” value [6, 13] was ~ 1 and the “AUC accumulation ratio (AUC96-108/AUC0-12)” value [6, 14] was ~ 1.
For `Cc1ccc(=O)n(-c2ccc(O)cc2)c1` [LYT-104, 4′-hydroxy-pirfenidone], the “Metabolite/Parent Ratio, Cmax, Maximum” value [1, 7] was 0.1%, the “Metabolite/Parent Ratio, Cmax, Median” value [1, 7] was 0.0% and the “Metabolite/Parent Ratio, Cmax, Minimum” value [1, 7] was 0.0%. The “Metabolite/Parent Ratio, Cmax, Mean” value [1, 7] was 0.0% and the “metabolite as percent of parent in terms of AUC” value [1] was “less than 2%”.
